This is an account of results in the NIST ThermoML archive (doi:10.1021/je900503p).

Molecules are shown by their SMILES. Several values for one entry are separate records, joined by “and”; a condition that tells them apart may be missing. Identical values can stand only once. ± gives the expanded uncertainty stated by the source.

For data set [1] the following is noted: 101 kPa, Liquid.
A short description of data set [2]: refractive index (Na D-line) (dimensionless). The note with it: 101.33 kPa, Liquid.
A short description of data set [3]: relative permittivity at zero frequency (dimensionless). The note with it: 101 kPa, Liquid, Dekameter.

For orientation: mass density means the mass of a sample divided by its volume. One may read the refractive index as the speed of light in vacuum divided by its phase velocity in the sample. In the case of `CCCCO` [butan-1-ol], the mass density in data set [1] (293.15 K) turned out to be 809.52 ± 0.43 kg/m3; in data set [1] (298.15 K), 805.58 ± 0.43 kg/m3; in data set [1] (303.15 K) it was 801.92 ± 0.44 kg/m3; in data set [1] (313.15 K) it was 794.26 ± 0.45 kg/m3. The refractive index in data set [2] (293.15 K) was found to be 1.3992 ± 0.0012; in data set [2] (298.15 K), 1.3972 ± 0.0012; in data set [2] (303.15 K), 1.3963 ± 0.0012; in data set [2] (313.15 K), 1.392 ± 0.0012. The “relative permittivity at zero frequency” value in data set [3] (293.15 K) stood at 18.26 ± 0.06; in data set [3] (298.15 K), 17.54 ± 0.06; in data set [3] (303.15 K), 16.89 ± 0.06; in data set [3] (313.15 K) it was 15.45 ± 0.06.
With `CCC(C)O` (stereo unspecified) [butan-2-ol], the mass density in data set [1] (293.15 K) is 805.54 ± 0.46 kg/m3; in data set [1] (298.15 K) it was 802.06 ± 0.47 kg/m3; in data set [1] (303.15 K), 798.45 ± 0.47 kg/m3; in data set [1] (313.15 K), 790.07 ± 0.48 kg/m3. Moreover, the refractive index in data set [2] (293.15 K) amounted to 1.3992 ± 0.0012; in data set [2] (298.15 K) it was 1.3954 ± 0.0012; in data set [2] (303.15 K), 1.3948 ± 0.0012; in data set [2] (313.15 K), 1.391 ± 0.0012. The “relative permittivity at zero frequency” value in data set [3] (293.15 K) is 17.51 ± 0.06; in data set [3] (298.15 K), 16.58 ± 0.06; in data set [3] (303.15 K), 15.75 ± 0.06; in data set [3] (313.15 K), 14.44 ± 0.06.
As for `O=C1CCCO1` [γ-butyrolactone], the mass density is 1128.79 ± 0.58 kg/m3 in data set [1] (293.15 K); 1123.75 ± 0.57 kg/m3 in data set [1] (298.15 K); 1118.79 ± 0.56 kg/m3 in data set [1] (303.15 K); 1121.76 ± 0.56 kg/m3 and 1108.88 ± 0.54 kg/m3 in data set [1] (313.15 K). The refractive index in data set [2] (293.15 K) was found to be 1.437 ± 0.0013; in data set [2] (298.15 K) it was 1.4356 ± 0.0013; in data set [2] (303.15 K), 1.4334 ± 0.0013; in data set [2] (313.15 K), 1.429 ± 0.0013. Further, the “relative permittivity at zero frequency” value is 42.34 ± 0.06 and 42.81 ± 0.06 in data set [3] (293.15 K); 41.64 ± 0.06 in data set [3] (298.15 K); 41.1 ± 0.06 in data set [3] (303.15 K); 39.92 ± 0.06 in data set [3] (313.15 K).
